Laboratory results reported in patent US9023789B2, “Amylin analogs and pharmaceutical compositions thereof” (Novo Nordisk A/S, priority 2012, dated 2015).
pIC50: −log10 of the molar value. Converted amounts (≈) assume the structure as drawn. Like-named read-outs stand apart in the source and are kept apart here. Numbered stars: 1 amine (or outer) side, 2 acyl side, 3 side chain; on linkers, the order of the positions; unused ones are H or OH. Bridge positions count the residues as written; N and C are the ends. Side chains are listed from the residue outwards. Peptide text beside a SMILES is read from it. * marks the point of attachment. C20 diacid = O=C(O)CCCCCCCCCCCCCCCCCCC(=O)*; γGlu = O=C(O)[C@H](CCC(=O)[*:2])N[*:1]

Experiments:
Sprague Dawley (SD) rats = assay: ASSAY (I) efficacy testing on appetite (food intake) using an ad libitum fed rat model; type: in vivo; conditions: rat
Summary of the method: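 Individual food consumption was logged each hour up to 7 h and again at 24 h, occasionally 48 h, with Grubbs-test outliers removed. Each 200–250 g Sprague Dawley rat, free-feeding in its home cage under reversed lighting, received a single ip, po or sc dose of 0.01–3 mg/kg at lights-off, alongside a vehicle group.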

[1] = ASSAY (IV) determination of solubility; type: physicochemical
Summary of the method: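 Solubility measured by UPLC of supernatant after centrifugation, following 18 h at room temperature. Peptide ([…] in water) was diluted 1:1 into 100 mM glycylglycine (pH 3.0, 4.0, 5.0) or bistrispropane (pH 6.0-8.0).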

rat calcitonin receptor = target: T1, rat calcitonin receptor (Rattus norvegicus, UniProt P32214); assay: ASSAY (VIII) binding to the rat calcitonin receptor; conditions: Table 7, read-out: rCTR bind IC50
T1 construct: expressed in transfected cells; host or cells: BHK tk'ts 13 (transient, FuGENE 6), membranes
T1 sequence (P32214 25-479 isoform P32214-2 limits assumed): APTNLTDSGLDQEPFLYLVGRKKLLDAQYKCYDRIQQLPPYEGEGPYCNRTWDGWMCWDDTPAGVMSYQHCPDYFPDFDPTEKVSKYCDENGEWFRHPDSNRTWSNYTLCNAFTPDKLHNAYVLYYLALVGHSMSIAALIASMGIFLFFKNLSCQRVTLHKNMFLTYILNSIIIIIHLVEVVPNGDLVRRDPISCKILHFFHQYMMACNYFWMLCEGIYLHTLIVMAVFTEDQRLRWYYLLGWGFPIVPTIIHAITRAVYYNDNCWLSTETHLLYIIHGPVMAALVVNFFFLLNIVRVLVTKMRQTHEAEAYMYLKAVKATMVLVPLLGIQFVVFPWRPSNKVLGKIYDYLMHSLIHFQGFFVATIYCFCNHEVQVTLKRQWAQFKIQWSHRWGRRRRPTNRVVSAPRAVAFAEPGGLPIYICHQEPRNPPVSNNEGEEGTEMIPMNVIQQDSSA
Summary of the method: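 BHK tk′ts 13 cells, transient rat calcitonin receptor transfection; DMEM + 10% FBS; harvest ~48 h post-transfection; membrane prep.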

[2] = bistrispropane buffer, pH 6.5, read-out: Solubility pH 6.5 Concentration
[3] = bistrispropane buffer, pH 7.5, read-out: Solubility pH 7.5 Concentration
[4] = bistrispropane buffer, pH 6.0, read-out: Solubility pH 6.0 Concentration
[5] = bistrispropane buffer, pH 7.0, read-out: Solubility pH 7.0 Concentration
[6] = bistrispropane buffer, pH 8.0, read-out: Solubility pH 8.0 Concentration
[7] = glycylglycine buffer, pH 3.0, read-out: Solubility pH 3.0 Concentration
[8] = glycylglycine buffer, pH 4.0, read-out: Solubility pH 4.0 Concentration
[9] = glycylglycine buffer, pH 5.0, read-out: Solubility pH 5.0 Concentration

| SMILES | Food intake reduction 0-24 h 3 nmol/kg (%) (Sprague Dawley (SD) rats; 3 nmol/kg, 0-24 h) | Food intake reduction 24-48 h 3 nmol/kg (%) (Sprague Dawley (SD) rats; 3 nmol/kg, 24-48 h) | solubility at 18 h [1, 2] | solubility at 18 h [1, 3] | solubility at 18 h [1, 4] | solubility at 18 h [1, 5] | solubility at 18 h [1, 6] | solubility at 18 h [1, 7] | solubility at 18 h [1, 8] | solubility at 18 h [1, 9] | pIC50 (rat calcitonin receptor) | Food intake reduction 0-24 h 30 nmol/kg (%) (Sprague Dawley (SD) rats; 0-24 h) | Food intake reduction 24-48 h 30 nmol/kg (%) (Sprague Dawley (SD) rats; 24-48 h) |
| --- | --- | --- | --- | --- | --- | --- | --- | --- | --- | --- | --- | --- | --- |
| CC[C@H](C)[C@H](NC(=O)[C@H](C)NC(=O)CNC(=O)[C@H](Cc1ccccc1)NC(=O)[C@H](CC(N)=O)NC(=O)[C@@H]1CCCN1C(=O)[C@H](CO)NC(=O)[C@H](CO)NC(=O)[C@H](Cc1c[nH]cn1)NC(=O)[C@H](CCCNC(=N)N)NC(=O)[C@H](CC(C)C)NC(=O)[C@H](Cc1ccccc1)NC(=O)[C@H](CC(=O)O)NC(=O)[C@H](C)NC(=O)[C@H](CC(C)C)NC(=O)[C@H](CCCNC(=N)N)NC(=O)[C@H](CCC(N)=O)NC(=O)[C@@H](NC(=O)[C@H](C)NC(=O)[C@@H]1CSSC[C@H](NC(=O)[C@@H](N)CCCCNC(=O)CC[C@H](NC(=O)CC[C@H](NC(=O)CCCCCCCCCCCCCCCCCCC(=O)O)C(=O)O)C(=O)O)C(=O)N[C@@H](CC(N)=O)C(=O)N[C@@H]([C@@H](C)O)C(=O)N[C@@H](C)C(=O)N[C@@H]([C@@H](C)O)C(=O)N1)[C@@H](C)O)C(=O)N1CCC[C@H]1C(=O)N[C@@H](CO)C(=O)N[C@@H](CO)C(=O)N[C@H](C(=O)N[C@@H](CC(N)=O)C(=O)N[C@H](C(=O)NCC(=O)N1CCC[C@H]1C(=O)N[C@@H](CCC(=O)O)C(=O)N[C@H](C(=O)N[C@@H](Cc1ccc(O)cc1)C(N)=O)[C@@H](C)O)C(C)C)[C@@H](C)O [Example 122] (H-K([γGlu-γGlu-C20 diacid])CNTATCATQRLADFLRHSSPNFGAIPSSTNVGPETY-NH2; disulfide 2-7 (inferred); N-terminus assumed) | 50% | 50% | ≥ 200 µM | ≥ 200 µM | ≥ 200 µM | ≥ 200 µM | ≥ 200 µM | ≥ 200 µM | ≥ 200 µM | ≥ 200 µM | 7.50 | – | – |
| CC[C@H](C)[C@H](NC(=O)[C@H](C)NC(=O)CNC(=O)[C@H](Cc1ccccc1)NC(=O)[C@H](CC(N)=O)NC(=O)[C@@H]1CCCN1C(=O)[C@H](CO)NC(=O)[C@H](CO)NC(=O)[C@H](Cc1c[nH]cn1)NC(=O)[C@H](CCCNC(=N)N)NC(=O)[C@H](CC(C)C)NC(=O)[C@H](Cc1ccccc1)NC(=O)[C@H](CCC(=O)O)NC(=O)[C@H](C)NC(=O)[C@H](CC(C)C)NC(=O)[C@H](CCCNC(=N)N)NC(=O)[C@H](CCC(N)=O)NC(=O)[C@@H](NC(=O)[C@H](C)NC(=O)[C@@H]1CSSC[C@H](NC(=O)[C@@H](N)CCCCNC(=O)CC[C@H](NC(=O)CC[C@H](NC(=O)CCCCCCCCCCCCCCCCCCC(=O)O)C(=O)O)C(=O)O)C(=O)N[C@@H](CC(N)=O)C(=O)N[C@@H]([C@@H](C)O)C(=O)N[C@@H](C)C(=O)N[C@@H]([C@@H](C)O)C(=O)N1)[C@@H](C)O)C(=O)N1CCC[C@H]1C(=O)N[C@@H](CO)C(=O)N[C@@H](CO)C(=O)N[C@H](C(=O)N[C@@H](CC(N)=O)C(=O)N[C@H](C(=O)NCC(=O)N1CCC[C@H]1C(=O)N[C@@H](Cc1c[nH]cn1)C(=O)N[C@H](C(=O)N[C@@H](Cc1ccc(O)cc1)C(N)=O)[C@@H](C)O)C(C)C)[C@@H](C)O [Example 124] (H-K([γGlu-γGlu-C20 diacid])CNTATCATQRLAEFLRHSSPNFGAIPSSTNVGPHTY-NH2; disulfide 2-7 (inferred)) | – | – | ≥ 200 µM | ≥ 200 µM | ≥ 200 µM | ≥ 200 µM | 165 µM (≈ 752 µg/mL) | ≥ 200 µM | ≥ 200 µM | ≥ 200 µM | 7.68 | 73% | 38% |
| CC[C@H](C)[C@H](NC(=O)[C@H](C)NC(=O)CNC(=O)[C@H](Cc1ccccc1)NC(=O)[C@H](CC(N)=O)NC(=O)[C@@H]1CCCN1C(=O)[C@H](CO)NC(=O)[C@H](CO)NC(=O)[C@H](Cc1c[nH]cn1)NC(=O)[C@H](CCCNC(=N)N)NC(=O)[C@H](CC(C)C)NC(=O)[C@H](Cc1ccccc1)NC(=O)[C@H](CC(=O)O)NC(=O)[C@H](C)NC(=O)[C@H](CC(C)C)NC(=O)[C@H](CCCNC(=N)N)NC(=O)[C@H](CCC(N)=O)NC(=O)[C@@H](NC(=O)[C@H](C)NC(=O)[C@@H]1CSSC[C@H](NC(=O)[C@@H](N)CCCCNC(=O)CC[C@H](NC(=O)CC[C@H](NC(=O)CCCCCCCCCCCCCCCCCCC(=O)O)C(=O)O)C(=O)O)C(=O)N[C@@H](CC(N)=O)C(=O)N[C@@H]([C@@H](C)O)C(=O)N[C@@H](C)C(=O)N[C@@H]([C@@H](C)O)C(=O)N1)[C@@H](C)O)C(=O)N1CCC[C@H]1C(=O)N[C@@H](CO)C(=O)N[C@@H](CO)C(=O)N[C@H](C(=O)N[C@@H](CC(N)=O)C(=O)N[C@H](C(=O)NCC(=O)N1CCC[C@H]1C(=O)N[C@@H](CCCNC(=N)N)C(=O)N[C@H](C(=O)N[C@@H](Cc1ccc(O)cc1)C(N)=O)[C@@H](C)O)C(C)C)[C@@H](C)O [Example 130] (H-K([γGlu-γGlu-C20 diacid])CNTATCATQRLADFLRHSSPNFGAIPSSTNVGPRTY-NH2; disulfide 2-7 (inferred); N-terminus assumed) | – | – | ≥ 200 µM | ≥ 200 µM | ≥ 200 µM | ≥ 200 µM | ≥ 200 µM | ≥ 200 µM | ≥ 200 µM | ≥ 200 µM | 6.65 | 80% | 27% |
